Here are results for 20 molecules from patent US8119681B2, “2-[1-phenyl-5-hydroxy or methoxy-4alpha-methyl-hexahydrocyclopenta [ƒ]indazole-5-YL]ethyl phenyl derivatives as glucocorticoid receptor ligands” (Merck Sharp & Dohme Corp., priority 2006, dated 2012).

Structures are written as SMILES.

Broadly, the Ki is a dissociation constant, usually derived from enzyme kinetics or from competition with a known ligand. The low end stands for tighter binding, the high end for weaker binding.

The experiment deals with T1, glucocorticoid receptor (GR) (Homo sapiens, UniProt P04150).
T1 construct: endogenous in cells; host or cells: HeLa (ATCC) cell lysate supernatant
T1 sequence (P04150 1-777): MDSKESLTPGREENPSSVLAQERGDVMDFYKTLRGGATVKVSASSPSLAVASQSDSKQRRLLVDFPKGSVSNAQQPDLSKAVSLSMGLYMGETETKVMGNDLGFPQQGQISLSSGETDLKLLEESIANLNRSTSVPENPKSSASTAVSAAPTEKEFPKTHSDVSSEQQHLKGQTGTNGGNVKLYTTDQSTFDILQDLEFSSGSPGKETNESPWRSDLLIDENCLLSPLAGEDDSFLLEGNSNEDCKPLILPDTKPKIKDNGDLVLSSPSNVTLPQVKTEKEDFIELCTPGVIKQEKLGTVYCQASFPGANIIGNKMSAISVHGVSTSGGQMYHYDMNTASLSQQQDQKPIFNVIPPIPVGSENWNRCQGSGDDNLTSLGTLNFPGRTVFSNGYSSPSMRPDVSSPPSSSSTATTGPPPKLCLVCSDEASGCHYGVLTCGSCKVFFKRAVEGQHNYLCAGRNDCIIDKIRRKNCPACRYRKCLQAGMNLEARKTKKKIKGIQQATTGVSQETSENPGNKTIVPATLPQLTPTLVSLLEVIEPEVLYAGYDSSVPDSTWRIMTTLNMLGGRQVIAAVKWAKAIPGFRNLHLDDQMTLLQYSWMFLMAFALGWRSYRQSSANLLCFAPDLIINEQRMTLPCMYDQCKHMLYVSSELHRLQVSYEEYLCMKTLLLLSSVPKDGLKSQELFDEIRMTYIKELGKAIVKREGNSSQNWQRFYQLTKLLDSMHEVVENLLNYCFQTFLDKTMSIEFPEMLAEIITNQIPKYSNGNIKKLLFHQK
Kind of experiment: Ligand binding assay (GR BIND), 3H-dexamethasone displacement, HeLa cell lysate. The note with it: Table 1; HeLa cell lysate, 3H-DEX. In short, it runs like this:
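HeLa cell lysate supernatant in TEGM (pH 7.2, molybdate) incubated overnight at 4 °C with 3H-dexamethasone trace (6 nM stock) and serially diluted compound, 2% EtOH final. Bound receptor captured on hydroxylapatite, filtered and counted by scintillation; IC50 calculated with dexamethasone as reference.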
As for `C[C@]12Cc3cnn(-c4ccc(F)cc4)c3C=C1CC[C@@]2(O)CCc1ccccc1S(=O)(=O)C1CC1` [Example 144, (4αS,5R)-5-{2-[2-(cyclopropylsulfonyl)phenyl]ethyl}-1-(4-fluorophenyl)-4α-methyl-1,4,4α,5,6,7-hexahydrocyclopenta[f]indazol-5-ol], the Ki turned out to be 1.32 nM.
The value for `C[C@]12Cc3cnn(-c4ccc(F)cc4)c3C=C1CC[C@@]2(O)CCc1cccc(F)c1CO` [Example 148, (4αS,5R)-5-{2-[3-fluoro-2-(hydroxymethyl)phenyl]ethyl}-1-(4-fluorophenyl)-4α-methyl-1,4,4α,5,6,7-hexahydrocyclopenta[f]indazol-5-ol] was 0.67 nM; that for `C[C@]12Cc3cnn(-c4ccc(F)cc4)c3C=C1CC[C@@]2(O)CCc1cccc(F)c1[C@H](N)C(F)(F)F` [Example 151, (4αS,5R)-5-(2-{2-[(1S)-1-amino-2,2,2-trifluoroethyl]-3-fluorophenyl}ethyl)-1-(4-fluorophenyl)-4α-methyl-1,4,4α,5,6,7-hexahydrocyclopenta[f]indazol-5-ol] was 1.74 nM; that for `C[C@]12Cc3cnn(-c4ccc(F)cc4)c3C=C1CC[C@@]2(O)CCc1cccc(F)c1[C@@H](N)C(F)(F)F` [Example 152, (4αS,5R)-5-(2-{2-[(1R)-1-amino-2,2,2-trifluoroethyl]-3-fluorophenyl}ethyl)-1-(4-fluorophenyl)-4α-methyl-1,4,4α,5,6,7-hexahydrocyclopenta[f]indazol-5-ol] was 2.6 nM.
The value for `C[C@]12Cc3cnn(-c4ccc(F)cc4)c3C=C1CC[C@@]2(O)CCc1ccccc1C(=O)N1CC(=O)C1` [Example 156, 1-(2-{2-[(4αS,5R)-1-(4-fluorophenyl)-5-hydroxy-4α-methyl-1,4,4α,5,6,7-hexahydrocyclopenta[f]indazol-5-yl]ethyl}benzoyl)azetidin-3-one] was 2.9 nM.
As for `CC(=O)Cc1ccccc1CC[C@]1(O)CCC2=Cc3c(cnn3-c3ccc(F)cc3)C[C@@]21C` [Example 157, 1-(2-{2-[(4αS,5R)-1-(4-fluorophenyl)-5-hydroxy-4α-methyl-1,4,4α,5,6,7-hexahydrocyclopenta[f]indazol-5-yl]ethyl}phenyl)acetone], the figure is 1.5 nM; as for `C[C@]12Cc3cnn(-c4ccc(F)cc4)c3C=C1CC[C@@]2(O)CCc1ccc(F)cc1C(N)=O` [Example 159, 5-fluoro-2-{2-[(4αS,5R)-1-(4-fluorophenyl)-5-hydroxy-4α-methyl-1,4,4α,5,6,7-hexahydrocyclopenta[f]indazol-5-yl]ethyl}benzamide], 2.96 nM; as for `C[C@]12Cc3cnn(-c4ccc(F)cc4)c3C=C1CC[C@@]2(O)/C=C/c1ccccc1S(N)(=O)=O` [Example 160, 2-{(E)-2-[(4αS,5R)-1-(4-fluorophenyl)-5-hydroxy-4α-methyl-1,4,4α,5,6,7-hexahydrocyclopenta[f]indazol-5-yl]vinyl}benzenesulfonamide], 0.94 nM.
`C[C@]12Cc3cnn(-c4ccc(F)cc4)c3C=C1CC[C@@]2(O)CCc1ccc(F)cc1C#N` [Example 163, 5-fluoro-2-{2-[(4αS,5R)-1-(4-fluorophenyl)-5-hydroxy-4α-methyl-1,4,4α,5,6,7-hexahydrocyclopenta[f]indazol-5-yl]ethyl}benzonitrile] showed a Ki of 0.17 nM.
The value for `C[C@]12Cc3cnn(-c4ccc(F)c(F)c4)c3C=C1CC[C@@]2(O)CCc1cccc(F)c1C(N)=O` [Example 168, 2-{2-[(4α,5R)-1-(3,4-difluorophenyl)-5-hydroxy-4α-methyl-1,4,4α,5,6,7-hexahydrocyclopenta[f]indazol-5-yl]ethyl}-6-fluorobenzamide] was 2.16 nM; that for `C[C@]12Cc3cnn(-c4ccc(F)cc4)c3C=C1CC[C@@]2(O)CCc1ccc(Cl)cc1C(N)=O` [Example 170, 5-chloro-2-{2-[(4αS,5R)-1-(4-fluorophenyl)-5-hydroxy-4α-methyl-1,4,4α,5,6,7-hexahydrocyclopenta[f]indazol-5-yl]ethyl}benzamide] was 2.12 nM; that for `C[C@]12Cc3cnn(-c4ccc(F)c(F)c4)c3C=C1CC[C@@]2(O)CCc1ccccc1C(N)=O` [Example 172, 2-{2-[(4αS,5R)-1-(3,4-difluorophenyl)-5-hydroxy-4α-methyl-1,4,4α,5,6,7-hexahydrocyclopenta[f]indazol-5-yl]ethyl}benzamide] was 6.59 nM.
As for `Cc1ccc(C(N)=O)c(CC[C@]2(O)CCC3=Cc4c(cnn4-c4ccc(F)cc4)C[C@@]32C)c1` [Example 174, 2-{2-[(4αS,5R)-1-(4-fluorophenyl)-5-hydroxy-4α-methyl-1,4,4α,5,6,7-hexahydrocyclopenta[f]indazol-5-yl]ethyl}-4-methylbenzamide], the figure is 4.76 nM; as for `C[C@]12Cc3cnn(-c4ccc(Cl)cc4)c3C=C1CC[C@@]2(O)CCc1cccc(F)c1C(N)=O` [Example 185, 2-{2-[(4αS,5R)-1-(4-chlorophenyl)-5-hydroxy-4α-methyl-1,4,4α,5,6,7-hexahydrocyclopenta[f]indazol-5-yl]ethyl}-6-fluorobenzamide], 1.93 nM; as for `COc1cccc(CC[C@]2(O)CCC3=Cc4c(cnn4-c4ccc(F)cc4)C[C@@]32C)c1C(N)=O` [Example 189, 2-{2-[(4αS,5R)-1-(4-fluorophenyl)-5-hydroxy-4α-methyl-1,4,4α,5,6,7-hexahydrocyclopenta[f]indazol-5-yl]ethyl}-6-methoxybenzamide], 1.55 nM.
The value for `Cc1cccc(CC[C@]2(O)CCC3=Cc4c(cnn4-c4cccc(F)c4)C[C@@]32C)c1C(N)=O` [Example 191, 2-{2-[(4αS,5R)-1-(3-fluorophenyl)-5-hydroxy-4α-methyl-1,4,4α,5,6,7-hexahydrocyclopenta[f]indazol-5-yl]ethyl}-6-methylbenzamide] was 2.51 nM; that for `C[C@]12Cc3cnn(-c4ccc(F)cc4)c3C=C1CC[C@@]2(O)CCc1cccc(F)c1CC(N)=O` [Example 194, 2-(2-fluoro-6-{2-[(4αS,5R)-1-(4-fluorophenyl)-5-hydroxy-4α-methyl-1,4,4α,5,6,7-hexahydrocyclopenta[f]indazol-5-yl]ethyl}phenyl)acetamide] was 1.48 nM; that for `C[C@]12Cc3cnn(-c4ccc(F)cc4)c3C=C1CC[C@@]2(O)CCc1cccc(Cl)c1CC(N)=O` [Example 197, 2-(2-chloro-6-{2-[(4αS,5R)-1-(4-fluorophenyl)-5-hydroxy-4α-methyl-1,4,4α,5,6,7-hexahydrocyclopenta[f]indazol-5-yl]ethyl}phenyl)acetamide] was 1.41 nM.
Regarding `CCC(O)(C(N)=O)c1ccccc1CC[C@]1(O)CCC2=Cc3c(cnn3-c3ccc(F)cc3)C[C@@]21C` (stereo partly drawn) [Example 199, 2-(2-{2-[(4αS,5R)-1-(4-fluorophenyl)-5-hydroxy-4α-methyl-1,4,4α,5,6,7-hexahydrocyclopenta[f]indazol-5-yl]ethyl}phenyl)-2-hydroxybutanamide], the Ki worked out at 4.55 nM.
The value for `CC(C)C(O)(C(N)=O)c1ccccc1CC[C@]1(O)CCC2=Cc3c(cnn3-c3ccc(F)cc3)C[C@@]21C` (stereo partly drawn) [Example 201, 2-(2-{2-[(4αS,5R)-1-(4-fluorophenyl)-5-hydroxy-4α-methyl-1,4,4α,5,6,7-hexahydrocyclopenta[f]indazol-5-yl]ethyl}phenyl)-2-hydroxy-3-methylbutanamide] was 5.62 nM.
